Reference: ChEMBL document CHEMBL3885861, “Open TG-GATES”

Organism: Rattus norvegicus
Experiment: Open TG-GATES - Regimen: Daily Repeat
Assay type: toxicity, organism-based, Sprague-Dawley
Design: regimen Daily Repeat, gender Male, age 6 weeks
Conditions: in vivo, po, route gavage; for APTT / Bas / Eos / Fbg / Hb / Ht / Lym / MCH / MCHC / MCV / Mono / Neu / PT / Plat / RBC / Ret / WBC: tissue Blood
[1] = 10 mg/kg, 72 h, dose level Low, time 3 day
[2] = 10 mg/kg, 72 h, tissue Kidney, dose level Low, time 3 day
[3] = 10 mg/kg, 72 h, tissue Plasma, dose level Low, time 3 day
[4] = 10 mg/kg, […], dose level Low, time 7 day
[5] = 10 mg/kg, […], dose level Low, time 14 day
[6] = 10 mg/kg, […], dose level Low, time 28 day

For CSc1ccc2c(c1)N(CCC1CCCCN1C)c1ccccc1S2 (configuration not stated) [THIORIDAZINE], the gamma-GTP (0 mg/kg, […], tissue Plasma, dose level Control, time 28 day) was 1.4 IU/L, the TERMINAL_BW [1] was 239 g and the APTT [1] was 16.3 s. For the same compound, the Bas [1] was 0%, the Eos [1] was 1% and the Fbg [1] was 219.4 mg/dL. The Hb [1] was 13.5 g/dL, the Ht [1] was 40.6% and the Lym [1] was 81%. It also gave an MCH [1] of 21.2 pg, an MCHC [1] of 33.3% and an MCV [1] of 63.6 fL. It also gave a Mono [1] of 5.8%, a Neu [1] of 12.4% and a PT [1] of 11.9 s. The Plat [1] was 107.3 x10_4/uL, the RBC [1] was 638.4 x10_4/ul and the Ret [1] was 8.8%. For the same compound, the WBC [1] was 136.6 x10_2/uL, the KIDNEY_L [2] was 1.1 g and the KIDNEY_R [2] was 1.1 g. It also gave a KIDNEY_TOTAL [2] of 2.2 g, an LIVER (10 mg/kg, 72 h, tissue Liver, dose level Low, time 3 day) of 12.5 g and an ALP [3] of 797.8 IU/L. For the same compound, the ALT [3] was 35.6 IU/L, the AST [3] was 62.2 IU/L and the BUN [3] was 17.2 mg/dL. The CRE [3] was 0.5 mg/dL, the Ca [3] was 11 mg/dL and the DBIL [3] was 0.042 mg/dL. For the same compound, the GLC [3] was 193.2 mg/dL, the IP [3] was 9 mg/dL and the K [3] was 4.7 meq/L. For the same compound, the LDH [3] was 82 IU/L, the Na [3] was 138.2 meq/L and the PL [3] was 163 mg/dL. It also gave an RALB [3] of 3.9 g/dL, a TBIL [3] of 0.3 mg/dL and a TC [3] of 81.8 mg/dL. For the same compound, the TG [3] was 137 mg/dL, the TP [3] was 5.9 g/dL and the gamma-GTP [3] was 1.6 IU/L. For the same compound, the TERMINAL_BW [4] was 268.9 g, the TERMINAL_BW [5] was 333.8 g and the TERMINAL_BW [6] was 403.9 g. The APTT [4] was 16.8 s, the Bas [4] was 0% and the Eos [4] was 0.8%. For the same compound, the Fbg [4] was 223 mg/dL, the Hb [4] was 13.9 g/dL and the Ht [4] was 41.4%. The Lym [4] was 79.2%, the MCH [4] was 20.6 pg and the MCHC [4] was 33.5%. For the same compound, the MCV [4] was 61.5 fL, the Mono [4] was 7% and the Neu [4] was 13.2%. The PT [4] was 12.1 s, the Plat [4] was 118.8 x10_4/uL and the RBC [4] was 674.2 x10_4/ul. The Ret [4] was 5.2%, the WBC [4] was 127.5 x10_2/uL and the APTT [5] was 17.3 s. For the same compound, the Bas [5] was 0%, the Eos [5] was 0.8% and the Fbg [5] was 237.8 mg/dL. The Hb [5] was 14.7 g/dL, the Ht [5] was 43.8% and the Lym [5] was 84.4%. The MCH [5] was 20.8 pg, the MCHC [5] was 33.6% and the MCV [5] was 62.1 fL. For the same compound, the Mono [5] was 5.8%, the Neu [5] was 9% and the PT [5] was 11.7 s. The Plat [5] was 115 x10_4/uL, the RBC [5] was 706.6 x10_4/ul and the Ret [5] was 4.2%. For the same compound, the WBC [5] was 167.8 x10_2/uL, the APTT [6] was 17.6 s and the Bas [6] was 0%. For the same compound, the Eos [6] was 1%.
